The RepoRT retention time repository (doi:10.1021/acs.analchem.1c00972)

Experiments:
[1] = RP, Waters ACQUITY UPLC BEH C18, 100 × 1 mm, 1.7 µm, 50 °C, 0.3 mL/min, estimated dead time 0.17 min; A: water + 10 mM ammonium bicarbonate; B: 10% water + 90% methanol + 10 mM ammonium bicarbonate; gradient (min/%B) 0/0 15/100 21/100 22/0 30/0; details: stereoisomer not certain
[2] = RP, Waters ACQUITY UPLC BEH C18, 100 × 1 mm, 1.7 µm, 50 °C, 0.3 mL/min, estimated dead time 0.17 min; A: water + 0.1% formic acid + 20 mM ammonium formate; B: methanol + 0.1% formic acid + 20 mM ammonium formate; gradient (min/%B) 0/0 15/100 21/100 22/0 30/0; details: stereoisomer not certain

Row | SMILES | LC retention time [1] | LC retention time [2]
1 | Clc1ccccc1C(c1ccccc1)(c1ccccc1)n1ccnc1 [Clotrimazole] | 16.7 min | 13.9 min
2 | CN1CCN(C2=Nc3cc(Cl)ccc3Nc3ccccc32)CC1 [Clozapine] | 15.7 min | 11.7 min
3 | COc1ccc2c3c1OC1C(O)C=CC4C(C2)N(C)CCC341 (stereo not given) [Codein] | 12.1 min | 6.77 min
4 | COc1cc2c(c(OC)c1OC)-c1ccc(OC)c(=O)cc1C(NC(C)=O)CC2 (stereo not given) [Colchicine] | 11.6 min | 11.4 min
5 | O=c1ccc2ccccc2o1 [Coumarin] | 9.93 min | 9.79 min
6 | CC(=O)OC(C)(C)C=CC(=O)C(C)(O)C1C(O)CC2(C)C3CC=C4C(C=C(O)C(=O)C4(C)C)C3(C)C(=O)CC12C (stereo not given) [Cucurbitacin E] | 14.7 min | 14.4 min
7 | Cc1ccc(-c2c(Cl)nc(C#N)n2S(=O)(=O)N(C)C)cc1 [Cyazofamid] | 15.3 min | 15 min
8 | O=C1CCCCCCCCCCC1 [Cyclododecanone] | 16.5 min | 16.1 min
9 | O=C(c1ccccc1)C1CCCCC1 [Cyclohexylphenylketone] | 15.9 min | 15.5 min
10 | O=C(Cc1ccccc1)NC(=NOCC1CC1)c1c(C(F)(F)F)ccc(F)c1F [Cyflufenamid] | 16.3 min | 16 min
11 | CC(C1CC1)C(O)(Cn1cncn1)c1ccc(Cl)cc1 (stereo not given) [Cyproconazole] | 15 min | 14.5 min
12 | CC(=O)C1(O)CCC2C3C=C(Cl)C4=CC(=O)C5CC5C4(C)C3CCC21C (stereo not given) [Cyproterone] | 14.9 min | 14.6 min
13 | O=c1cccc2n1CC1CNCC2C1 (stereo not given) [Cytisin] | 7.53 min | 2.31 min
14 | CNCCCC(C#N)(c1ccc(OC)c(OC)c1)C(C)C (stereo not given) [D617] | 12.4 min | 10.8 min
15 | O=C1C(O)Oc2ccccc2N1O (stereo not given) [DIBOA] | 3.05 min | 7.76 min
16 | COc1ccc2c(c1)OC(O)C(=O)N2O (stereo not given) [DIMBOA] | 4.91 min | 8.5 min
17 | CN(C)S(=O)(=O)Nc1ccccc1 [DMSA] | 10.7 min | 10.7 min
18 | Cc1ccc(NS(=O)(=O)N(C)C)cc1 [DMST] | 12.1 min | 12 min
19 | CC(C)CN(CC(O)C(Cc1ccccc1)NC(=O)OC1COC2OCCC12)S(=O)(=O)c1ccc(N)cc1 (stereo not given) [Darunavir] | 13.4 min | 13.1 min
20 | Clc1ccc2c(c1)CCc1cccnc1C2=C1CCNCC1 [Desloratadine] | 14.7 min | 11.9 min
21 | CCOC(=O)Nc1cccc(OC(=O)Nc2ccccc2)c1 [Desmedipham] | 13.6 min | 13.5 min
22 | CNc1nc(NC(C)C)nc(SC)n1 [Desmetryn] | 13.1 min | 11.7 min

Row | SMILES | LC retention time [1] | LC retention time [2]
23 | CC1(C)OC2CC3C4CCC5=CC(=O)C=CC5(C)C4C(O)CC3(C)C2(C(=O)CO)O1 (stereo not given) [Desonide] | 13.9 min | 13.6 min
24 | CC1CC2C3CCC4=CC(=O)C=CC4(C)C3(F)C(O)CC2(C)C1(O)C(=O)CO (stereo not given) [Dexamethasone] | 13.5 min | 13.2 min
25 | CC(C)CCCCCCCOC(=O)c1ccccc1C(=O)OCCCCCCCC(C)C [Di-iso-decylphthalate] | 21.3 min | 20 min
26 | CC(C)CCCCCCOC(=O)c1ccccc1C(=O)OCCCCCCC(C)C [Di-iso-nonylphthalate] | 20.5 min | 19.7 min
27 | CCCCCCCOC(=O)c1ccccc1C(=O)OCCCCCCC [Di-n-heptylphthalate] | 19.4 min | 18.9 min
28 | C=CCOC(=O)c1ccccc1C(=O)OCC=C [Diallylphthalate] | 14.5 min | 14.2 min
29 | CC(=O)Nc1c(I)c(NC(C)=O)c(I)c(C(=O)O)c1I [Diatrizoate] | 3.99 min | 4.47 min
30 | CCOP(=S)(OCC)Oc1cc(C)nc(C(C)C)n1 [Diazinon] | 16 min | 15.7 min
31 | O=C(OCc1ccccc1)c1ccccc1C(=O)OCc1ccccc1 [Dibenzylphthalate] | 16.7 min | 16.3 min
32 | CCCCOC(=O)CCCCCCCCC(=O)OCCCC [Dibutyl sebacate] | 18.5 min | 18.1 min
33 | CC(C)(C)C(O)C(Cc1ccc(Cl)cc1Cl)n1cncn1 (stereo not given) [Dichlobutrazol] | 15.8 min | 15.4 min
34 | O=C(OC1CCCCC1)c1ccccc1C(=O)OC1CCCCC1 [Dicyclohexylphthalat] | 12.5 min | 14.2 min
35 | CCCCCCCCCCOC(=O)c1ccccc1C(=O)OCCCCCCCCCC [Didecylphthalat] | 21.4 min | 20.1 min
36 | CCCCOCCOCCO [Diethylene glycol monobutyl ether] | 10.9 min | 10.8 min
37 | O=C(Nc1ccc(F)cc1F)c1cccnc1Oc1cccc(C(F)(F)F)c1 [Diflufenican] | 16.7 min | 16.3 min
38 | CC(C)OC(=O)c1ccccc1C(=O)OC(C)C [Diisopropylphthalate] | 15.4 min | 15.1 min
39 | COc1ccc(C2Sc3ccccc3N(CCN(C)C)C(=O)C2OC(C)=O)cc1 (stereo not given) [Diltiazem] | 15.5 min | 11.8 min
40 | COCC(C)N(C(=O)CS(=O)CC(=O)O)c1c(C)csc1C (stereo not given) [Dimethenamid M31] | 10.6 min | 11.4 min
41 | COc1ccc(C(=CC(=O)N2CCOCC2)c2ccc(Cl)cc2)cc1OC [Dimethomorph] | 14.7 min | 14.4 min
42 | COC(=O)c1ccc(C(=O)OC)cc1 [Dimethyl terephthalate] | 20.7 min | 11.1 min
43 | COP(=S)(S)OC [Dimethyldithiophosphate] | 2.81 min | 2.01 min
44 | CCCCCCCCCOC(=O)c1ccccc1C(=O)OCCCCCCCCC [Dinonylphthalate] | 20.5 min | 19.7 min

Row | SMILES | LC retention time [1] | LC retention time [2]
45 | CC(C)(C)c1cc([N+](=O)[O-])cc([N+](=O)[O-])c1O [Dinoterb] | 12.6 min | 15.7 min
46 | CCCCC(CC)COC(=O)CC(C(=O)OCC(CC)CCCC)S(=O)(=O)O (stereo not given) [Dioctylsulfosuccinate] | 17.3 min | 17 min
47 | CC1CCC2(OC1)OC1CC3C4CC=C5CC(O)CCC5(C)C4CCC3(C)C1C2C (stereo not given) [Diosgenin] | 19.6 min | 19 min
48 | CN(C)CCOC(c1ccccc1)c1ccccc1 [Diphenhydramine] | 15.7 min | 11.7 min
49 | O=P(O)(Oc1ccccc1)Oc1ccccc1 [Diphenylphosphate] | 10.9 min | 11 min
50 | O=C(Oc1ccccc1)c1ccccc1C(=O)Oc1ccccc1 [Diphenylphthalate] | 16 min | 15.7 min
51 | O=c1[nH]c2ccccc2n1CCCN1CCC(n2c(=O)[nH]c3cc(Cl)ccc32)CC1 [Domperidone] | 14.8 min | 10.7 min
52 | NCCc1ccc(O)c(O)c1 [Dopamine] | 6.92 min | 6.88 min
53 | COc1cc2nc(N3CCN(C(=O)C4COc5ccccc5O4)CC3)nc(N)c2cc1OC (stereo not given) [Doxazosin] | 14 min | 11.6 min
54 | CN(C)CCOC(C)(c1ccccc1)c1ccccn1 (stereo not given) [Doxylamine] | 14 min | 8.49 min
55 | OCC(O)CN1CCN(c2ccccc2)CC1 (stereo not given) [Dropropizine] | 10.7 min | 6.44 min
56 | CC12CCC(=O)C=C1C1CC1C1C2CCC2(C)C1C1CC1C21CCC(=O)O1 (stereo not given) [Drospirenone] | 14.5 min | 14.2 min
57 | CNCCC(Oc1cccc2ccccc12)c1cccs1 (stereo not given) [Duloxetine] | 15.4 min | 13.2 min
58 | CC(C)(C)c1ccc(C(=O)CCCN2CCC(OC(c3ccccc3)c3ccccc3)CC2)cc1 [Ebastin] | 18.8 min | 15.9 min
59 | CC=C(C)C(=O)OC1CCN2CC=C(COC(=O)C(O)(C(C)O)C(C)(C)O)C12 (stereo not given) [Echimidine] | 13.2 min | 9.4 min
60 | O=C1Nc2ccc(Cl)cc2C(C#CC2CC2)(C(F)(F)F)O1 (stereo not given) [Efavirenz] | 15.8 min | 15.5 min
61 | CCC(C)C1OC2(C=CC1C)CC1CC(CC=C(C)C(OC3CC(OC)C(OC4CC(OC)C(NC)C(C)O4)C(C)O3)C(C)C=CC=C3COC4C(O)C(C)=CC(C(=O)O1)C34O)O2 (stereo not given) [Emamectin B1a] | 18.6 min | 17.1 min
62 | Nc1nc(=O)n(C2CSC(CO)O2)cc1F (stereo not given) [Emtricitabine] | 5.99 min | 5.75 min
63 | CCOC(=O)C(CCc1ccccc1)NC(C)C(=O)N1CCCC1C(=O)O (stereo not given) [Enalapril] | 12.2 min | 11.7 min
64 | CCN1CCN(c2cc3c(cc2F)c(=O)c(C(=O)O)cn3C2CC2)CC1 [Enrofloxacin] | 11.4 min | 8.5 min
65 | CCC(C)C1OC2(C=CC1C)CC1CC(CC=C(C)C(OC3CC(OC)C(OC4CC(OC)C(NC(C)=O)C(C)O4)C(C)O3)C(C)C=CC=C3COC4C(O)C(C)=CC(C(=O)O1)C34O)O2 (stereo not given) [Eprinomectin B1a] | 18.3 min | 17.9 min
